Reference: patent US20240301319A1, “PERFUMING COMPOSITIONS” (FIRMNICH SA, priority 2017, published 2024)

Legend:
[1] = Volatility of perfuming compounds (Tables 4 to 10), with top/middle/bottom note type; assay type: physicochemical
Method in brief: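 Volatility is expressed in μg/l in air. Top notes are 70,000 to 100 μg/l, middle notes 99 to 50 μg/l, and bottom notes 49 to 0.1 μg/l. Compounds are grouped by olfactive family: watery, green, fruity, citrus, sweet, gourmand and woody.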

[2] = Odor threshold and odor value of perfuming compounds (Tables 4 to 10)
[3] = Table 4, watery note, top, middle or bottom note
[4] = Table 4, watery note, equals volatility divided by odor threshold
[5] = Table 6, perfuming compounds having a fruity note
[6] = Table 6, perfuming compounds having a fruity note, note type by volatility
[7] = Table 7, citrus note, top, middle or bottom note
[8] = Table 7, citrus note, equals volatility divided by odor threshold
[9] = Table 10, perfuming compounds having a woody note, note type by volatility
[10] = note type (Top/Middle/Bottom) by volatility, perfuming compounds having a green note
[11] = perfuming compounds having a green note
[12] = Table 8, perfuming compounds having a sweet note
[13] = Table 8, perfuming compounds having a sweet note, note type by volatility

In the case of `CCCCCCCCC(C)C=O` (racemic) [(+−)-2-methyldecanal″], the “Volatility (μg/l air)” value ([1]; Table 4, watery note) is reported as 297.74 μg/l air, the Type [1, 3] is reported as “TOP (perfuming compounds having a volatility ranging from 70,000 to 100 μg/l in air are referred to as “top notes”)” and the “Odor Threshold (μg/l air)” value ([2]; Table 4, watery note) is reported as 9.00E−04 μg/l air. The “Odor Value” [2, 4] was 3.31E+05.

For `CCCCC/C(C=O)=C\c1ccccc1` [(E)-2-PENTYL-3-PHENYL-2-PROPENAL], the Volatility [1, 5] was 0.68 μg/l air, the Type [1, 6] was “Bottom” and the “Volatility (μg/l air)” value ([1]; Table 7, citrus note) was 0.68 μg/l air. For the same compound, the Type [1, 7] was “Bottom”, the “Odor Threshold” value [2, 5] was 3.64E−04 μg/l air and the “Odor Value” [2, 5] was 1.87E+03. The “Odor Threshold (μg/l air)” value ([2]; Table 7, citrus note) was 3.64E−04 μg/l air and the “Odor Value” [2, 8] was 1.87E+03.

In the case of `CC(=O)OC1CCC2C(C)(C)CCCC2(C)C1` (stereo not shown) [5,5,8a-trimethyldecahydro-2-naphthalenyl acetate], the Type [1, 9] is reported as “Bottom”, the Volatility ([1]; Table 10, woody note) is reported as 14.41 μg/l air and the “Odor Threshold” value ([2]; Table 10, woody note) is reported as 4.19E−04 μg/l air.

In the case of `Cc1ccc2c(c1)CC(C)(CO)C2` (racemic), the “Volatility (μg/l air)” value ([1]; Table 4, watery note) is reported as 4.86 μg/l air, the Type [1, 3] is reported as “bottom (perfuming compounds having a volatility ranging from 49 to 0.1 μg/l in air are referred to as “bottom notes”)” and the “Odor Threshold (μg/l air)” value ([2]; Table 4, watery note) is reported as 1.28E−04 μg/l air. The “Odor Value” [2, 4] was 3.79E+04.

For `CC(=O)OCCC1=CCC2CC1C2(C)C` (stereo not shown), the Type [1, 9] was “Middle”, the Volatility ([1]; Table 10, woody note) was 60.02 μg/l air and the “Odor Threshold” value ([2]; Table 10, woody note) was 1.10E−01 μg/l air.

In the case of `CCCC(S)CCOC` (racemic) [(+−)-1-METHOXY-3-HEXANETHIOL], the Type [1, 10] is reported as “Top”, the “Volatility (μg/l air)” value [1, 11] is reported as 2534.77 μg/l air and the “Odor Threshold (μg/l air)” value [2, 11] is reported as 1.92E−07 μg/l air.

For `C/C=C/C(=O)C1=C(C)CCCC1(C)C`, the Volatility [1, 5] was 81.66 μg/l air, the Type [1, 6] was “Middle” and the Type [1, 9] was “Middle”. For the same compound, the Volatility ([1]; Table 10, woody note) was 81.66 μg/l air, the “Odor Threshold” value [2, 5] was 2.18E−04 μg/l air and the “Odor Value” [2, 5] was 3.75E+05. The “Odor Threshold” value ([2]; Table 10, woody note) was 2.18E−04 μg/l air.

In the case of `O=C(Cc1ccccc1)OCCc1ccccc1` [2-PHENYLETHYL PHENYLACETATE], the Volatility [1, 5] is reported as 0.20 μg/l air, the Type [1, 6] is reported as “Bottom” and the “Volatility (μg/l air)” value ([1]; Table 7, citrus note) is reported as 0.20 μg/l air. The Type [1, 7] was “Bottom”, the Volatility [1, 12] was 0.20 μg/l air and the Type [1, 13] was “Bottom”. The Volatility ([1]; Table 9, gourmand note) was 0.20 μg/l air, the Type ([1]; Table 9, perfuming compounds having a gourmand note, note type by volatility) was “Bottom” and the “Odor Threshold” value [2, 5] was 9.08E−04 μg/l air. The “Odor Value” [2, 5] was 2.24E+02, the “Odor Threshold (μg/l air)” value ([2]; Table 7, citrus note) was 9.08E−04 μg/l air and the “Odor Value” [2, 8] was 2.24E+02. For the same compound, the “Odor Threshold” value [2, 12] was 9.08E−04 μg/l air, the “Odor Value” [2, 12] was 2.24E+02 and the “Odor Threshold” value ([2]; Table 9, gourmand note) was 9.08E−04 μg/l air.

With `C/C=C(\C)C(=O)OCCCCCC` [hexyl (2E)-2-methyl-2-butenoate] the Volatility [1, 5] was 256.81 μg/l air, the Type [1, 6] was “TOP (perfuming compounds having a volatility ranging from 70,000 to 100 μg/l in air are referred to as “top notes”)” and the Volatility [1, 12] was 256.81 μg/l air. For the same compound, the Type [1, 13] was “Top”, the Type [1, 10] was “Top” and the “Volatility (μg/l air)” value [1, 11] was 256.81 μg/l air. The “Odor Threshold” value [2, 12] was 1.16E−02 μg/l air, the “Odor Value” [2, 12] was 2.22E+04 and the “Odor Threshold (μg/l air)” value [2, 11] was 1.16E−02 μg/l air.

In the case of `CCC(=O)OCc1ccccc1` [BENZYL PROPANOATE], the Volatility [1, 5] is reported as 113.60 μg/l air, the Type [1, 6] is reported as “TOP (perfuming compounds having a volatility ranging from 70,000 to 100 μg/l in air are referred to as “top notes”)” and the Type [1, 10] is reported as “Top”. For the same compound, the “Volatility (μg/l air)” value [1, 11] was 113.60 μg/l air, the “Odor Threshold” value [2, 5] was 2.81E−02 μg/l air and the “Odor Value” [2, 5] was 4.04E+03. The “Odor Threshold (μg/l air)” value [2, 11] was 2.81E−02 μg/l air.

In the case of “9-ETHYLIDENE-3-OXATRICYCLO[6.2.1.0(2,7)]UNDECAN-4-ONE (A) + 10-ETHYLIDENE-3-OXATRICYCLO[6.2.1.0(2,7)] . . . (B)”, the “Volatility (μg/l air)” value ([1]; Table 7, citrus note) is reported as 2.10 μg/l air, the Type [1, 7] is reported as “Bottom” and the “Odor Threshold (μg/l air)” value ([2]; Table 7, citrus note) is reported as 1.42E−04 μg/l air. For the same compound, the “Odor Value” [2, 8] was 1.48E+04.

With `CC(CO)c1ccccc1` (racemic) [(+−)-2-phenyl-1-propanol] the Type [1, 10] was “Top”, the “Volatility (μg/l air)” value [1, 11] was 142.19 μg/l air and the “Odor Threshold (μg/l air)” value [2, 11] was 3.62E−02 μg/l air.

With `CCCCCC(C#N)CCC` (racemic) [(+−)-2-propylheptanenitrile] the Volatility [1, 5] was 439.00 μg/l air, the Type [1, 6] was “TOP (perfuming compounds having a volatility ranging from 70,000 to 100 μg/l in air are referred to as “top notes”)” and the “Volatility (μg/l air)” value ([1]; Table 7, citrus note) was 439.00 μg/l air. The Type [1, 7] was “Top”, the “Odor Threshold (μg/l air)” value ([2]; Table 7, citrus note) was 7.83E−02 μg/l air and the “Odor Value” [2, 8] was 5.61E+03.

For `C=CC(C)(O)CCC=C(C)C` (racemic) [(+−)-3,7-dimethyl-1,6-octadien-3-ol], the Volatility [1, 5] was 896.72 μg/l air, the Type [1, 6] was “TOP (perfuming compounds having a volatility ranging from 70,000 to 100 μg/l in air are referred to as “top notes”)” and the “Volatility (μg/l air)” value ([1]; Table 7, citrus note) was 896.72 μg/l air. For the same compound, the Type [1, 7] was “Top”, the “Odor Threshold (μg/l air)” value ([2]; Table 7, citrus note) was 8.89E−05 μg/l air and the “Odor Value” [2, 8] was 1.01E+07.
